Source: publication doi:10.1101/2025.09.20.677545v1, “Parallel Evolution of a Drimenol Biosynthetic Gene Cluster Unique to Marine Bacteria” (biorxiv, 2025)

What was measured:
Assay type in all cases: biochemical
[1] = target: T1, Sc terpene synthase β (Sorangium cellulosum, UniProt Z9XJ57G830); assay: GC-MS of product after alkaline phosphatase (BAP) treatment; settings: […] FPP, […] enzyme, […] Tris-HCl pH […] MgCl2 (Mg2+ not required), […] °C; cyclization to a diphosphate, product seen only after BAP
T1 construct: codon-optimized, N-terminal His8 tag kept, pET28b(+), E. coli BL21 Star (DE3), TALON; single β domain with DxDVT134-138 motif
T1 sequence (Z9XJ57G830 1-342): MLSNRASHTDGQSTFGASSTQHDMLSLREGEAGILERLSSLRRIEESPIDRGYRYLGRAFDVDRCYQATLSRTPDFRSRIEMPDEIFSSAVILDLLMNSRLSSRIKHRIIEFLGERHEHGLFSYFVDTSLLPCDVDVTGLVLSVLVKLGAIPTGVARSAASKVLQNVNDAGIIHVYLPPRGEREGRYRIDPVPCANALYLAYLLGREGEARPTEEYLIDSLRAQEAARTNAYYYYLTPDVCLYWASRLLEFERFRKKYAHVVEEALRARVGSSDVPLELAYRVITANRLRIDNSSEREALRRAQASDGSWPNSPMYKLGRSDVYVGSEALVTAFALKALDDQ

[2] = target: T2, AsFPPS (Aquimarina spongiae, UniProt A0A1M6CXH4); assay: GC-MS of farnesol after alkaline phosphatase (BAP) treatment; settings: 100 μM GPP with 100 μM IPP; otherwise same
T2 construct: gene SAMN04488508_102321; codon-optimized, N-terminal His8 tag kept, pET28b(+), E. coli BL21 Star (DE3), TALON
T2 sequence (A0A1M6CXH4 1-289): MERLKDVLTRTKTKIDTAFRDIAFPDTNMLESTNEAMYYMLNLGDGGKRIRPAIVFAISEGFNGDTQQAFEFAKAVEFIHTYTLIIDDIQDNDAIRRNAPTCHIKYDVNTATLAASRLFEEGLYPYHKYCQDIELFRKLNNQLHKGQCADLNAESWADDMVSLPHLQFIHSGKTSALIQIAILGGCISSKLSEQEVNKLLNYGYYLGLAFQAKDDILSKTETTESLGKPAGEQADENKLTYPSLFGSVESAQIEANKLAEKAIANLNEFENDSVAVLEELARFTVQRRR

[3] = target: T3, FeFPPS (Flavivirga eckloniae, UniProt A0A2K9PVX7); assay: as above; settings: 100 μM GPP with 100 μM IPP; otherwise same
T3 construct: gene C1H87_21960; codon-optimized, N-terminal His8 tag kept, pET28b(+), E. coli BL21 Star (DE3), TALON
T3 sequence (A0A2K9PVX7 1-289): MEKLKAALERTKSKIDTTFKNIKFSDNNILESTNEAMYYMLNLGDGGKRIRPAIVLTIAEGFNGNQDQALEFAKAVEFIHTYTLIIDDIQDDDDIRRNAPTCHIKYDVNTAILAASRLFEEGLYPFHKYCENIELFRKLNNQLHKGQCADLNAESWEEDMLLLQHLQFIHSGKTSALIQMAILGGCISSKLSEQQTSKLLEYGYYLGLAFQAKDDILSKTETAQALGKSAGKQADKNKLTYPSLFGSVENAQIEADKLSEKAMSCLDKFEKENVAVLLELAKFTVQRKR

SMILES	GC-MS of product after alkaline phosphatase (BAP) treatment [1]	GC-MS of farnesol after alkaline phosphatase (BAP) treatment [2]	GC-MS of farnesol after alkaline phosphatase (BAP) treatment [3]
CC(C)=CCC/C(C)=C/CC/C(C)=C/COP(=O)(O)OP(=O)(O)O [farnesyl pyrophosphate]	Sc terpene synthase β is monofunctional and performs only the cyclization step of FPP		
CC(C)=CCC/C(C)=C/COP(=O)(O)OP(=O)(O)O [geranyl pyrophosphate]		dimethylallyl pyrophosphate (DMAPP) or geranyl pyrophosphate (GPP) as an allylic substrate	dimethylallyl pyrophosphate (DMAPP) or geranyl pyrophosphate (GPP) as an allylic substrate
